Test results published in patent US20250034216A1, “STEREOSELECTIVE COVALENT LIGANDS FOR ONCOGENIC AND IMMUNOLOGICAL PROTEINS” (The Scripps Research Institute, priority 2021, published 2025).

Experiments:
[1] = biological target: T1, ATP9A_C31 (Homo sapiens, UniProt O75110); experiment: IA-DTB cysteine engagement; format: binding; details: 22Rv1 cells, 20 μM probe, 1 h, relative to DMSO
T1 construct: endogenous in cells; host or cells: 22Rv1
T1 sequence (O75110 1-1047): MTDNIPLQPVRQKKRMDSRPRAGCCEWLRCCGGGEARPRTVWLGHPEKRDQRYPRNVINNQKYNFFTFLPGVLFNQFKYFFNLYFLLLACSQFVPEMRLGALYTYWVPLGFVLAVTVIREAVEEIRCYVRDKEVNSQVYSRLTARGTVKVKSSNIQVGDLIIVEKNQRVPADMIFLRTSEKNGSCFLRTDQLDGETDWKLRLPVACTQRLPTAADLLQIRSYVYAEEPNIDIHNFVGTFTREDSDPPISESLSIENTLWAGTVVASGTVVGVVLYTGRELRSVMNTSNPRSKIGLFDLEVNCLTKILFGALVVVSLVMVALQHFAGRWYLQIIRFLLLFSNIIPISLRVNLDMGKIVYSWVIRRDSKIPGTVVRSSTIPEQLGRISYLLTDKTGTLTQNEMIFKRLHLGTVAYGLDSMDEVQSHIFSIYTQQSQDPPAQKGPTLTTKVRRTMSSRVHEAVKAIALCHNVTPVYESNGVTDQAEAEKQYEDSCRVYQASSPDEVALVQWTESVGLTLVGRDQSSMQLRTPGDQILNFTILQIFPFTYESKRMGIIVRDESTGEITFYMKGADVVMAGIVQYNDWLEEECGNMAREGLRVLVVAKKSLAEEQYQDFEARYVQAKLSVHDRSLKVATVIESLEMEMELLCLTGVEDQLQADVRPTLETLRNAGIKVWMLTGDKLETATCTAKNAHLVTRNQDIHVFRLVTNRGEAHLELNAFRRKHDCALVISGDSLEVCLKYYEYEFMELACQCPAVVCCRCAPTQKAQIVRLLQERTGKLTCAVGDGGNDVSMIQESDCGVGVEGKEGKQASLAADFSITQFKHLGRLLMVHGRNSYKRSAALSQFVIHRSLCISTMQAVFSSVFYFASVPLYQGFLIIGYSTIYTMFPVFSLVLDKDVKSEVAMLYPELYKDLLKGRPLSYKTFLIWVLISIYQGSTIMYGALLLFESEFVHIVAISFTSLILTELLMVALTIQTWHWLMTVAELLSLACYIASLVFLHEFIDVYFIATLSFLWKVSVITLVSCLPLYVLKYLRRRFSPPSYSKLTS
In short: (§1)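 Probe-exposed cells were lysed, IA-DTB-labeled, trypsinized and streptavidin-enriched. Multiplexed TMT quantitation gave engagement ratios versus DMSO, with non-tryptic peptides excluded and intensities normalized to median summed signal.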

[2] = biological target: T2, SLC25A16_C311 (Homo sapiens, UniProt P16260); experiment: IA-DTB cysteine engagement; format: binding; details: 22Rv1 cells, 20 μM probe, 1 h, relative to DMSO
T2 construct: endogenous in cells; host or cells: 22Rv1
T2 sequence (P16260 1-332): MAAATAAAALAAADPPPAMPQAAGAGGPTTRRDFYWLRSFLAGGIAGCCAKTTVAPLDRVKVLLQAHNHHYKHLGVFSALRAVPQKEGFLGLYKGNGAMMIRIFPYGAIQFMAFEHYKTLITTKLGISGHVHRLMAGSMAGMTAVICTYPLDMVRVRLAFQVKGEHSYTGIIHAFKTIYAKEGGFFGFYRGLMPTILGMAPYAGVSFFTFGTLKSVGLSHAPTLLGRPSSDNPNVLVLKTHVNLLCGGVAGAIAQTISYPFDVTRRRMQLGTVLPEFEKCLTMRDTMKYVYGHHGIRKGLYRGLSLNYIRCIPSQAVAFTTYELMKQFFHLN
In short: as §1

% engagement ATP9A_C31 [1] [%]	% engagement SLC25A16_C311 [2] [%]	SMILES
86.5	38.5	C=CC(=O)N1C[C@H](c2ccc(Br)cc2)[C@H]1C(=O)Nc1cccc2cccnc12 [MY-3B, (2S,3S)-1-acryloyl-3-(4-bromophenyl)-N-(quinolin-8-yl)azetidine-2-carboxamide]
79.5	37.5	C=CC(=O)N1C[C@H](c2ccc(Br)cc2)[C@@H]1C(=O)Nc1cccc2cccnc12 [MY-1B, (2R,3S)-1-acryloyl-3-(4-bromophenyl)-N-(quinolin-8-yl)azetidine-2-carboxamide]
73	32	C=CC(=O)N1C[C@H](c2ccc(Br)cc2)[C@H]1C(=O)Nc1cccc2cccnc12 [MY-3A, (2S,3S)-1-acryloyl-3-(4-bromophenyl)-N-(quinolin-8-yl)azetidine-2-carboxamide]
84.5	79	C=CC(=O)N1C[C@@H](c2ccc(Br)cc2)[C@H]1C(=O)Nc1cccc2cccnc12 [MY-1A, (2S,3R)-1-acryloyl-3-(4-bromophenyl)-N-(quinolin-8-yl)azetidine-2-carboxamide]
